From the supplement of paper PMC11451515

System: P12-Ichikawa
Experiment: cell viability relative to DMSO control; higher = less cytotoxic
Conditions: 48 h
Summary of the method: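 Before seeding, each leukemia line was adapted for at least four passages in each medium. NOMO1 or SEM cells (500 cells/well) and P12-Ichikawa cells (1000 cells/well) went into 1536-well plates at 5 μl, then received library compounds in DMSO by pin dosing across 11 threefold concentrations, 47 μM to 0.79 nM. Readout was CellTiter-Glo One luminescence after 48 h at 37°C, and viability is given as a per-plate percentage of DMSO wells, with cell-free wells as background.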

[1] = HPLM + 10% dialyzed FBS, 0.000781 µM
[2] = HPLM + 10% dialyzed FBS, 0.00234 µM
[3] = HPLM + 10% dialyzed FBS, 0.00702 µM
[4] = HPLM + 10% dialyzed FBS, 0.0211 µM
[5] = HPLM + 10% dialyzed FBS, 0.0632 µM
[6] = HPLM + 10% dialyzed FBS, 0.19 µM
[7] = HPLM + 10% dialyzed FBS, 0.569 µM
[8] = HPLM + 10% dialyzed FBS, 1.71 µM
[9] = HPLM + 10% dialyzed FBS, 5.12 µM
[10] = HPLM + 10% dialyzed FBS, 15.4 µM
[11] = HPLM + 10% dialyzed FBS, 46.1 µM
[12] = RPMI 5 mM glucose + 10% FBS, 0.000781 µM
[13] = RPMI 5 mM glucose + 10% FBS, 0.00234 µM
[14] = RPMI 5 mM glucose + 10% FBS, 0.00702 µM
[15] = RPMI 5 mM glucose + 10% FBS, 0.0211 µM
[16] = RPMI 5 mM glucose + 10% FBS, 0.0632 µM
[17] = RPMI 5 mM glucose + 10% FBS, 0.19 µM
[18] = RPMI 5 mM glucose + 10% FBS, 0.569 µM
[19] = RPMI 5 mM glucose + 10% FBS, 1.71 µM
[20] = RPMI 5 mM glucose + 10% FBS, 5.12 µM
[21] = RPMI 5 mM glucose + 10% FBS, 15.4 µM
[22] = RPMI 5 mM glucose + 10% FBS, 46.1 µM
[23] = RPMI 5 mM glucose + 10% dialyzed FBS, 0.000781 µM
[24] = RPMI 5 mM glucose + 10% dialyzed FBS, 0.00234 µM
[25] = RPMI 5 mM glucose + 10% dialyzed FBS, 0.00702 µM
[26] = RPMI 5 mM glucose + 10% dialyzed FBS, 0.0211 µM
[27] = RPMI 5 mM glucose + 10% dialyzed FBS, 0.0632 µM
[28] = RPMI 5 mM glucose + 10% dialyzed FBS, 0.19 µM
[29] = RPMI 5 mM glucose + 10% dialyzed FBS, 0.569 µM
[30] = RPMI 5 mM glucose + 10% dialyzed FBS, 1.71 µM
[31] = RPMI 5 mM glucose + 10% dialyzed FBS, 5.12 µM
[32] = RPMI 5 mM glucose + 10% dialyzed FBS, 15.4 µM
[33] = RPMI 5 mM glucose + 10% dialyzed FBS, 46.1 µM

SMILES	cell viability [1] [%]	cell viability [2] [%]	cell viability [3] [%]	cell viability [4] [%]	cell viability [5] [%]	cell viability [6] [%]	cell viability [7] [%]	cell viability [8] [%]	cell viability [9] [%]	cell viability [10] [%]	cell viability [11] [%]	cell viability [12] [%]	cell viability [13] [%]	cell viability [14] [%]	cell viability [15] [%]	cell viability [16] [%]	cell viability [17] [%]	cell viability [18] [%]	cell viability [19] [%]	cell viability [20] [%]	cell viability [21] [%]	cell viability [22] [%]	cell viability [23] [%]	cell viability [24] [%]	cell viability [25] [%]	cell viability [26] [%]	cell viability [27] [%]	cell viability [28] [%]	cell viability [29] [%]	cell viability [30] [%]	cell viability [31] [%]	cell viability [32] [%]	cell viability [33] [%]
OC[C@H]1O[C@@H](Oc2cc(O)cc(/C=C/c3ccc(O)cc3)c2)[C@H](O)[C@@H](O)[C@@H]1O	98.2	110	108	113	113	107	108	131	110	117	117	110	114	106	113	116	125	117	123	105	103	101	89.9	109	105	105	114	107	115	112	103	102	101
NC(=O)Nc1cc(-c2cccc(F)c2)sc1C(=O)N[C@H]1CCCNC1	121	124	125	122	130	112	111	74	13.4	7.94	6.66	–	–	–	–	–	–	–	–	–	–	–	–	–	–	–	–	–	–	–	–	–	–
COc1ncc(-c2ccc3c(Nc4cc(Oc5cc(F)cc(F)c5)cc(C(=O)O)c4)c([S+](=O)([O-])NC4CC4)cnc3c2)c(OC)n1	94.1	95.9	92.3	91.9	91.5	94.2	93.3	91.7	87.9	78.6	82.3	84	87.8	88.1	93.1	97.9	84.2	82.2	83.1	79.6	75.3	76.5	91.1	43	87.7	89.4	92.7	91	91.3	88.4	84.6	82.8	81.8
CC(NCCc1ccc(O)cc1)C(O)c1ccc(O)cc1 (configuration not stated)	106	109	116	113	117	112	111	103	109	106	100	114	120	122	115	110	114	125	116	120	99	111	107	105	113	109	115	111	107	105	102	97	90.6
COc1cc(CNC(=O)CCCC/C=C/C(C)C)ccc1O	108	99.4	106	102	102	101	13.3	11	11	12.3	14.1	104	105	109	106	104	119	95.2	12.2	12.2	10.1	10.5	111	103	106	108	116	112	32.9	21.3	22.2	14.3	15.7
N#C/C(C(=O)c1ccc(Cl)cc1Cl)=C1/NC(=O)c2ccc(Cl)cc2N1	114	123	108	115	111	111	110	106	103	107	107	115	119	117	107	106	111	107	103	105	105	94.2	106	106	107	110	112	98.9	107	104	97.8	101	98.3
CC1(C)C(N(O)C(=O)Nc2ccc(Cl)cc2)N(c2ccc(Cl)cc2)C(=O)N1CC(=O)N/N=C/C=C/c1ccc([N+](=O)[O-])o1 (configuration not stated)	112	109	111	113	115	104	105	103	99.4	103	65.6	108	105	105	110	113	107	110	106	102	100	52.4	115	104	115	111	109	113	104	103	103	91.3	49
Cc1noc(-c2ccc(CSCCC(=O)O)cc2)c1NC(=O)OC(C)c1ccccc1Cl (configuration not stated)	98.3	99.3	97.1	102	95.4	101	101	107	99	88.6	70.2	88.3	89.1	80.9	87.4	86.4	95.7	97.3	94.7	93.1	87.3	85.3	90.3	90	91.7	96.7	91.6	102	84.8	89.1	97.9	89.3	79.5
